Experiments:
Assay in all cases: FRET-based coupled-enzyme protein kinase inhibition assay
Assay type in all cases: biochemical
Settings in all cases: compound at 10 µM, 1% DMSO
PRKCB1 (PKC beta I) = PRKCB1 (PKC beta I) (Homo sapiens, UniProt P05771)
Protocol: A biochemical assay was then performed in order to measure the protein kinase inhibition. It employed a fluorescence-based coupled-enzyme format and was based on the differential sensitivity of phosphorylated and non-phosphorylated peptides to proteolytic cleavage.
Peptide substrates were labeled with two fluorophores. The two fluorohores used were coumarin (donor) and fluorecein (acceptor), and each of the peptides was bearing one at one end, and one at the other end, which made up fluorescence resonance energy transfer (FRET) pair peptides.
In a primary reaction, the FRET-peptides were submitted to a phosphorylation reaction, in which one of adenosine triphosphate (ATP)'s phosphate groups was transferred to the peptide in the presence of kinase. When kinase inhibition takes place, the peptide will not be phosphorylated. In a secondary reaction, both the phosphorylated FRET-peptides and the non-phosphorylated FRET-peptides were reacted with a development reagent. It has been observed that non-phosphorylated FRET-peptides were cleaved, whereas the phosphorylted FRET-peptide remained intact.
Cleavage disrupts FRET between the donor (i.e., coumarin) and acceptor (i.e., fluorescein) fluorophores on the FRET-peptide, whereas uncleaved, phosphorylated FRET-peptides maintain FRET. A ratiometric method, which calculates the Emission Ratio of donor emission to acceptor emission after excitation of the donor fluorophore at 400 nm, is used to quantitate reaction progress, as shown in the equation below. [formula]
A significant benefit of this ratiometric method for quantitating reaction progress is the elimination of well-to-well variations in FRET-peptide concentration and signal intensities. As a result, the assay yields very high Z'factor values (>0.7) at a low percent phosphorylation. Both cleaved and uncleaved FRET-peptides contribute to the fluorescence signals and therefore to the Emission Ratio. The extent of phosphorylation of the FRET-peptide can be calculated from the Emission Ratio. The Emission Ratio will remain low if the FRET-peptide is phosphorylated (i.e., no kinase inhibition) and will be high if the FRET-peptide is non-phosphorylated (i.e., kinase inhibition).
The Test Compounds were screened in 1% DMSO. For 10 point titrations, 3-fold serial dilutions were prepared from the starting concentration.
All Peptide/Kinase Mixtures were diluted to a 2X working concentration in the appropriate Kinase Buffer (50 mM HEPES pH 7.5, 0.01% BRIJ-35, 10 mM MgCl2, 1 mM […]).
All ATP Solutions were diluted to a 4X working concentration in Kinase Buffer. ATP Km apparent was previously determined using another assay.
The Development Reagent was diluted in Development Buffer. For 5 mL 10X Novel PKC Lipid Mix, 10X Novel PKC Lipid Mix being composed of 2 mg/ml Phosphatidyl Serine, 0.2 mg/ml DAG in 20 mM HEPES, pH 7.4, 0.3% CHAPS, 10 mg of Phosphatidyl Serine (Avanti Polar Lipids Part# 8400032C or 840039C) and 1 mg DAG (Avanti Polar Lipids Part# 800811C) were added to a glass tube.
The chloroform was removed from the lipid mixture by evaporating to a clear, thin film under a stream of nitrogen. Continuous rotation of the tube, at an angle to ensure maximum surface area of the lipid solution, has promoted the thinnest film. 5mL resuspension buffer, 20 mM HEPES, 0.3% CHAPS, pH 7.4, were added to the dried lipid mix, which was then gently heated to 50-60°C for 1-2 minutes and vortexed in short intervals until the lipids are dissolved to a clear or slightly hazy solution. The lipids were typically in solution after 2-3 heat-vortex cycles. The solution was cooled to room temperature, aliquoted into single use volumes and stored at -20 °C.
2.5 µL - 4X Test Compound or 100 nL 100X plus 2.4 µL kinase buffer were mixed together with 2. 5 µL - 2X Peptide/Kinase Mixture and 3. 2.5 µL - 4X ATP Solution.
The solution was plate-shaked for 30 seconds, then incubated 60 minutes at room temperature for kinase reaction. […]

MAPK8 (JNK1) = MAPK8 (JNK1) (Homo sapiens, UniProt P45983)
In short: (§1)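 FRET peptide (coumarin donor, fluorescein acceptor) was phosphorylated by each kinase in 50 mM HEPES pH 7.5, 10 mM MgCl2, 1 mM EDTA, 0.01% BRIJ-35 for 60 min at room temperature. ATP was at apparent Km, compounds in 1% DMSO. Protease development reagent then cleaved non-phosphorylated peptide over 60 min.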

AMPK A1/B1/G1 = AMPK A1/B1/G1 (Homo sapiens, UniProt Q13131)
In short: as §1

PHKG2 = molecular target: T1, PHKG2 (Homo sapiens, UniProt P15735)
T1 sequence (P15735 1-406): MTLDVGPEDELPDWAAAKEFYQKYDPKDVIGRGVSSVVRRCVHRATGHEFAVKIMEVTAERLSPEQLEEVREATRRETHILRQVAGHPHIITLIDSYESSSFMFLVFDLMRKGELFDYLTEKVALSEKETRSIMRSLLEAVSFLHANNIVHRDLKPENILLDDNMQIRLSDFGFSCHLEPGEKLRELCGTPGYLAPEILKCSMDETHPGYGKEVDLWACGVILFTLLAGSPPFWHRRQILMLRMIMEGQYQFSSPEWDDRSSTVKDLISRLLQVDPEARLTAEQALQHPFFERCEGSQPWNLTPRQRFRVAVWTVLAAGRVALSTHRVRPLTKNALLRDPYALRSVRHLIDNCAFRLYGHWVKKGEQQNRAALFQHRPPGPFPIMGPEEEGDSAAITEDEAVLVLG
In short: as §1

Chain of MAPK8 (JNK1) (P45983 whole entry, species assumed): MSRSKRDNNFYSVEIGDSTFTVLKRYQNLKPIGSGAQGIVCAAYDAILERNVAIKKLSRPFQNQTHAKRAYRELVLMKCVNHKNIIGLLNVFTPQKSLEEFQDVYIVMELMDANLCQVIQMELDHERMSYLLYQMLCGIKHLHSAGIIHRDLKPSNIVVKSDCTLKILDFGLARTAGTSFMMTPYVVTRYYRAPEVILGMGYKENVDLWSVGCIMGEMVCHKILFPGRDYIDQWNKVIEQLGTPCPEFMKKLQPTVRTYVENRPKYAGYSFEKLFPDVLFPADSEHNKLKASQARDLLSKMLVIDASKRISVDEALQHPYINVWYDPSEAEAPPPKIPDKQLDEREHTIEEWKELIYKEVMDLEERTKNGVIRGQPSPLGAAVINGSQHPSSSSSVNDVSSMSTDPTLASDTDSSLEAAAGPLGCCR
Chain of PRKCB1 (PKC beta I) (P05771 whole entry, species assumed): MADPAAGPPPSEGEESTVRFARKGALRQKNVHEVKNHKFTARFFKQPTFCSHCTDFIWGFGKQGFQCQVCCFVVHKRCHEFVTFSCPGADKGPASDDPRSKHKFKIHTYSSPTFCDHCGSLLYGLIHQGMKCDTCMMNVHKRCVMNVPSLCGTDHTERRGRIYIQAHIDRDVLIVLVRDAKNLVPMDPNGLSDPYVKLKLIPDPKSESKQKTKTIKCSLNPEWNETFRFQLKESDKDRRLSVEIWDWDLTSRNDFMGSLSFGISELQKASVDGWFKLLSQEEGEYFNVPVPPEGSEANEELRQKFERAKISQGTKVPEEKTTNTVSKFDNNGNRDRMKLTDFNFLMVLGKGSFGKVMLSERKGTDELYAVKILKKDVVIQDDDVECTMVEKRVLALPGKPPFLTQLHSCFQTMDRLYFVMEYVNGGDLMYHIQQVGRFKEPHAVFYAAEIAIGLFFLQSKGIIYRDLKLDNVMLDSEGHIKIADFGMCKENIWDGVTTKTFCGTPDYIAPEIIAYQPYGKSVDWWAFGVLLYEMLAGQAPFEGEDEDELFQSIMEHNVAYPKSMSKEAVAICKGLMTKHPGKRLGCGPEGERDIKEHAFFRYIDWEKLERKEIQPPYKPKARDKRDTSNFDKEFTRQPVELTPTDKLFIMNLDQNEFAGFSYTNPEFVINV
Chain of AMPK A1/B1/G1 (Q13131 whole entry): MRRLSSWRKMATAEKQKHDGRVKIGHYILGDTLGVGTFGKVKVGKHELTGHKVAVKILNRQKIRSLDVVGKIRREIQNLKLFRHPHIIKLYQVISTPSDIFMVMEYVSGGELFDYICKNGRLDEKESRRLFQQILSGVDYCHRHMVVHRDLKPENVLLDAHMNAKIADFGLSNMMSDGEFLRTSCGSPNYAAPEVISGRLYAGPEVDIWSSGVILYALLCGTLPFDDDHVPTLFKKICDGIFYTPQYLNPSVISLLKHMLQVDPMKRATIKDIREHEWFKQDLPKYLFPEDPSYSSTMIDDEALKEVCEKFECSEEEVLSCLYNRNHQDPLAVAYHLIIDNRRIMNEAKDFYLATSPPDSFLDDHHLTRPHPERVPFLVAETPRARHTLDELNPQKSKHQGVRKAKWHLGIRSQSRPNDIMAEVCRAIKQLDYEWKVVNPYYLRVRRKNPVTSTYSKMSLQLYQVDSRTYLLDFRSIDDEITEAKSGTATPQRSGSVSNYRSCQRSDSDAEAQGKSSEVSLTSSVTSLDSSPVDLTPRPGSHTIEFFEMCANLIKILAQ
Chain of AMPK A1/B1/G1 (Q9Y478 whole entry partner): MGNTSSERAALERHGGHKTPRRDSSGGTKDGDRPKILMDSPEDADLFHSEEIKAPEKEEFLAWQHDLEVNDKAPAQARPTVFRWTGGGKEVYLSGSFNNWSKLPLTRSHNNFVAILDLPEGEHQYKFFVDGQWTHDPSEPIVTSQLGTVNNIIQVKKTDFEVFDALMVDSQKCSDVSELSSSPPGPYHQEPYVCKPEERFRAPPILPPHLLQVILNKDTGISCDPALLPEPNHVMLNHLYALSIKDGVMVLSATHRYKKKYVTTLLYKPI
Chain of AMPK A1/B1/G1 (P54619 whole entry partner): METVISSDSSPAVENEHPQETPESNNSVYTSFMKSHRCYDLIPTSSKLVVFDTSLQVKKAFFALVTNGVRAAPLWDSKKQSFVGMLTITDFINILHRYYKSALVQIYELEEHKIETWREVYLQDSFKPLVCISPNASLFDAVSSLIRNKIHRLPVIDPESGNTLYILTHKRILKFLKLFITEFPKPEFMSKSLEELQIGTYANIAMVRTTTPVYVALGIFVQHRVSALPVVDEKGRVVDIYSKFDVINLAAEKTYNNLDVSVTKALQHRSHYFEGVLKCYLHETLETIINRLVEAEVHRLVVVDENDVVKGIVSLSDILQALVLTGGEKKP

Structure (SMILES)	inhibition at 10 µM (PRKCB1 (PKC beta I))	inhibition at 10 µM (MAPK8 (JNK1))	inhibition at 10 µM (AMPK A1/B1/G1)	inhibition at 10 µM (PHKG2)
Nc1ncnc2c1ncn2[C@@H]1O[C@H](COC(=O)NCCCc2nc3ccccc3[nH]2)[C@@H](O)[C@H]1O [Compound C1]	6%	12%	17%	-3%
Nc1ncnc2c1ncn2[C@@H]1O[C@H](COC(=O)NCCN2CCCC2=O)[C@@H](O)[C@H]1O [Compound C22]	-8%	5%	4%	-6%
Nc1ncnc2c1ncn2[C@@H]1O[C@H](COC(=O)N2CCC[C@H]2CO)[C@@H](O)[C@H]1O [Compound C9]	-6%	3%	4%	-4%
CN(C)CCNC(=O)OC[C@H]1O[C@@H](n2cnc3c(N)ncnc32)[C@H](O)[C@@H]1O [Compound C85]	-1%	4%	4%	1%
CC(C)N1CCC(NC(=O)OC[C@H]2O[C@@H](n3cnc4c(N)ncnc43)[C@H](O)[C@@H]2O)CC1 [Compound C19]	4%	0%	5%	-3%
C[C@@H](NC(=O)OC[C@H]1O[C@@H](n2cnc3c(N)ncnc32)[C@H](O)[C@@H]1O)c1ccc(Cl)cc1 [Compound C4]	-1%	14%	17%	-2%
Nc1ncnc2c1ncn2[C@@H]1O[C@H](COC(=O)NC[C@H](O)CO)[C@@H](O)[C@H]1O [Compound C8]	-11%	13%	17%	-3%

Further lines, results first:

inhibition at 10 µM (PRKCB1 (PKC beta I))	inhibition at 10 µM (MAPK8 (JNK1))	inhibition at 10 µM (AMPK A1/B1/G1)	inhibition at 10 µM (PHKG2)	Structure (SMILES)
0%	8%	3%	-1%	Nc1ncnc2c1ncn2[C@@H]1O[C@H](COC(=O)N2CCN(CCc3ccccc3)CC2)[C@@H](O)[C@H]1O [Compound C26]
1%	7%	4%	1%	Nc1ncnc2c1ncn2[C@@H]1O[C@H](COC(=O)N2CCS(=O)(=O)CC2)[C@@H](O)[C@H]1O [Compound C100]
-1%	4%	9%	-1%	CS(=O)(=O)N1CC2(CCN(C(=O)OC[C@H]3O[C@@H](n4cnc5c(N)ncnc54)[C@H](O)[C@@H]3O)CC2)c2ccccc21 [Compound C98]
1%	6%	14%	-2%	Nc1ncnc2c1ncn2[C@@H]1O[C@H](COC(=O)N2CCC(Cc3ccc(F)cc3)C2)[C@@H](O)[C@H]1O (stereo partly shown) [Compound C66]
-5%	8%	8%	1%	N#CCCN1CCN(C(=O)OC[C@H]2O[C@@H](n3cnc4c(N)ncnc43)[C@H](O)[C@@H]2O)CC1 [Compound C70]
5%	6%	11%	0%	Nc1ncnc2c1ncn2[C@@H]1O[C@H](COC(=O)N[C@@H]2CCN(Cc3ccccc3)C2)[C@@H](O)[C@H]1O [Compound C10]
7%	2%	6%	0%	Nc1ncnc2c1ncn2[C@@H]1O[C@H](COC(=O)N2CCN(Cc3ccccc3)CC2CO)[C@@H](O)[C@H]1O (stereo partly shown) [Compound C13]
0%	-2%	4%	0%	CN1CCN(CCNC(=O)OC[C@H]2O[C@@H](n3cnc4c(N)ncnc43)[C@H](O)[C@@H]2O)CC1 [Compound C46]
-6%	5%	2%	-2%	Nc1ncnc2c1ncn2[C@@H]1O[C@H](COC(=O)N2CCN(C(=O)N3CCOCC3)CC2)[C@@H](O)[C@H]1O [Compound C89]
